One may read the MIC as the lowest concentration found to suppress growth.

In brackets after ≈: the same amount, converted by molar mass. Where two headings read alike, the source gives them in different places.

The text below walks through data of patent US10800791B2, “Triazole ACC inhibitors and uses thereof” (Gilead Apollo, LLC, priority 2015, dated 2020).

The test system of assay [1] is Fusarium virguliforme (Fv). Kind of assay: Growth inhibition assay of fungal pathogens, Fv. The following applies: 48 h. In kind it is cell-based. A digest of the protocol:
(§1)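 Percent inhibition derived at 48 hours from OD600 and visual scores versus 2% DMSO control, with media+DMSO blank as background. Spore inocula in 17% V8 medium were sized from 48 h growth curves; compounds tested at final 50/10/2 or 2/0.4/0.08 ppm.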

In assay [2] the test system is C. krusei. Kind of assay: Antifungal Activity Assay (broth microtiter MIC), C. krusei. The class given is cell-based, Candida krusei. The following applies: Pichia kudriavzevii, ATCC6258, 48 h. A digest of the protocol:
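Endpoint: lowest concentration visibly inhibiting growth relative to control after 48 h. Inoculum of 2.5×10^3 CFU/mL final in RPMI 1640+MOPS, prepared from overnight 35° C agar cultures; test compounds diluted in water to 128 μg/mL before plating.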

Assay [3] concerns Fusarium moniliforme (Fm). Kind of assay: Growth inhibition assay of fungal pathogens, Fm. The class given is cell-based. The note with it: for IC90: Fusarium verticillioides, 48 h, read-out: Concentration at 90% Inhibition Fm. The method, boiled down:
as §1

Setting [4] is: growth inhibition at 48 hours vs 2% DMSO control, read-out: Concentration at 90% Inhibition Fv.
Where [5] appears, read: growth inhibition vs 2% DMSO control at 48 hours, read-out: Concentration at 90% Inhibition Fv.
[6] abbreviates: Table 3a, ATCC 6258, 3 replicates, MIC recorded at 48 h, read-out: MIC, C. krusei ATCC 6258.
Setting [7] is: Table 3b (additional results), ATCC 6258, 3 replicates, MIC recorded at 48 h, read-out: MIC, C. krusei ATCC 6258.
The mark [8] stands for this setting: Fusarium moniliforme, growth inhibition at 48 hours vs 2% DMSO control.
[9] abbreviates: Fusarium moniliforme, growth inhibition vs 2% DMSO control at 48 hours.
[10] abbreviates: read-out: Concentration at 90% Inhibition Fv, Fusarium virguliforme, growth inhibition at 48 hours vs 2% DMSO control.
Where [11] appears, read: read-out: Concentration at 90% Inhibition Fv, Fusarium virguliforme, growth inhibition vs 2% DMSO control at 48 hours.
Setting [12] is: read-out: MIC, C. krusei ATCC 6258, Table 3a, 3 replicates, MIC recorded at 48 h.
Setting [13] is: read-out: MIC, C. krusei ATCC 6258, Table 3b (additional results), 3 replicates, MIC recorded at 48 h.

`COc1ccc(F)cc1[C@H](Cn1c(=O)n(C(C)(C)C(=O)N2CCCC2)c(=O)c2c(C)c(-n3nccn3)sc21)OCCN(C)C` [Compound I-75, (R)-1-(2-(2-(dimethylamino)ethoxy)-2-(5-fluoro-2-methoxyphenyl)ethyl)-5-methyl-3-(2-methyl-1-oxo-1-(pyrrolidin-1-yl)propan-2-yl)-6-(2H-1,2,3-triazol-2-yl)thieno[2,3-d]pyrimidine-2,4(1H,3H)-dione]: the IC90 in assay [1] (setting [4]), in assay [1] (setting [5]), in assay [3] (setting [8]) and in assay [3] (setting [9]) was above 50 µg/mL throughout. Moreover, the MIC in assay [2] (setting [6]) fell in the range of 2.1 to 4 µg/mL (≈ 3.35 to 6.37 µM); in assay [2] (setting [7]), 2.01 to 4 µg/mL (≈ 3.2 to 6.37 µM).

For the molecule `COc1ccc(F)cc1[C@H](Cn1c(=O)n(C(C)(C)C(=O)NC(C)C)c(=O)c2c(C)c(-n3nccn3)sc21)OCCN(C)C` [Compound I-76, (R)-2-(1-(2-(2-(dimethylamino)ethoxy)-2-(5-fluoro-2-methoxyphenyl)ethyl)-5-methyl-2,4-dioxo-6-(2H-1,2,3-triazol-2-yl)-1,4-dihydro-thieno[2,3-d]pyrimidin-3(2H)-yl)-N-isopropyl-2-methylpropanamide], the IC90 in assay [1] (setting [10]), in assay [1] (setting [11]) and in assay [3] was above 50 µg/mL in each case. The figures for the minimal inhibitory concentration (MIC) in assay [2] (setting [12]) and in assay [2] (setting [13]) were 2.1 to 4 µg/mL (≈ 3.41 to 6.5 µM) and 0.25 to 1 µg/mL (≈ 0.406 to 1.62 µM), respectively. The “Concentration at 90% Inhibition Fm” value in assay [3] (setting [8]) is listed as “D (compound concentration of >50 ppm at 90% inhibition of fungal pathogens)”.

For `COc1ccc(F)cc1[C@H](Cn1c(=O)n([C@@H](C)C(=O)NC2CCC2)c(=O)c2c(C)c(-n3nccn3)sc21)OCCO` [Compound I-77, (S)—N-cyclobutyl-2-(1-((R)-2-(5-fluoro-2-methoxyphenyl)-2-(2-hydroxyethoxy)ethyl)-5-methyl-2,4-dioxo-6-(2H-1,2,3-triazol-2-yl)-1,4-dihydrothieno[2,3-d]pyrimidin-3(2H)-yl)propanamide], the IC90 in assay [1] (setting [4]) stood at 0.4 µg/mL (≈ 0.682 µM); in assay [1] (setting [5]), 0.4 µg/mL (≈ 0.682 µM); in assay [3] (setting [8]), 0.08 µg/mL (≈ 0.136 µM); in assay [3] (setting [9]), 0.08 µg/mL (≈ 0.136 µM). Besides, the MIC lay within 2.1 to 4 µg/mL (≈ 3.58 to 6.82 µM) in assay [2] (setting [6]) and 0.25 to 1 µg/mL (≈ 0.426 to 1.7 µM) in assay [2] (setting [7]).

`COc1ccc(F)cc1[C@H](Cn1c(=O)n([C@@H](C)C(=O)N(C)C(C)C)c(=O)c2c(C)c(-n3nccn3)sc21)OCCO` [Compound I-78, (S)-2-(1-((R)-2-(5-fluoro-2-methoxyphenyl)-2-(2-hydroxy-ethoxy)ethyl)-5-methyl-2,4-dioxo-6-(2H-1,2,3-triazol-2-yl)-1,4-dihydrothieno[2,3-d]pyrimidin-3(2H)-yl)-N-isopropyl-N-methylpropanamide]: the IC90 in assay [1] (setting [4]) turned out to be 0.4 µg/mL (≈ 0.68 µM); in assay [1] (setting [5]), 0.4 µg/mL (≈ 0.68 µM); in assay [3] (setting [8]), 0.08 µg/mL (≈ 0.136 µM); in assay [3] (setting [9]), 0.08 µg/mL (≈ 0.136 µM). The MIC in assay [2] (setting [6]) lay within 2.1 to 4 µg/mL (≈ 3.57 to 6.8 µM); in assay [2] (setting [7]) it was 1.01 to 2 µg/mL (≈ 1.72 to 3.4 µM).

`COCCO[C@@H](Cn1c(=O)n(CC(=O)N2CCCC2)c(=O)c2c(C)c(-n3nccn3)sc21)c1cc(F)ccc1OC` [Compound I-79, (R)-1-(2-(5-fluoro-2-methoxyphenyl)-2-(2-methoxy-ethoxy)ethyl)-5-methyl-3-(2-oxo-2-(pyrrolidin-1-yl)ethyl)-6-(2H-1,2,3-tria-zol-2-yl)thieno[2,3-d]pyrimidine-2,4(1H,3H)-dione]: the IC90 in assay [1] (setting [4]) is 2 µg/mL (≈ 3.41 µM); in assay [1] (setting [5]), 10 µg/mL (≈ 17 µM); in assay [3] (setting [8]), 0.4 µg/mL (≈ 0.682 µM); in assay [3] (setting [9]), 0.4 µg/mL (≈ 0.682 µM). Further, the MIC in assay [2] (setting [6]) is 2.1 to 4 µg/mL (≈ 3.58 to 6.82 µM); in assay [2] (setting [7]), above 4.01 µg/mL.

As for `COCCO[C@@H](Cn1c(=O)n(CC(=O)NC(C)C)c(=O)c2c(C)c(-n3nccn3)sc21)c1cc(F)ccc1OC` [Compound I-80, (R)-2-(1-(2-(5-fluoro-2-methoxyphenyl)-2-(2-methoxy-ethoxy)ethyl)-5-methyl-2,4-dioxo-6-(2H-1,2,3-triazol-2-yl)-1,4-dihydro-thieno[2,3-d]pyrimidin-3(2H)-yl)-N-isopropylacetamide], the figures for the IC90 in assay [1] (setting [10]), in assay [1] (setting [11]) and in assay [3] were 2 µg/mL (≈ 3.48 µM), 10 µg/mL (≈ 17.4 µM) and 0.08 µg/mL (≈ 0.139 µM), respectively. Further, the figures for the minimal inhibitory concentration (MIC) in assay [2] (setting [12]) and in assay [2] (setting [13]) were 2.1 to 4 µg/mL (≈ 3.65 to 6.96 µM) and above 4.01 µg/mL, respectively. In addition, the “Concentration at 90% Inhibition Fm” value in assay [3] (setting [8]) is “AA (compound concentration of 0.08 ppm at 90% inhibition of fungal pathogens)”.

In the case of `COc1ccc(F)cc1[C@H](Cn1c(=O)n(CC(=O)N2CCCC2)c(=O)c2c(C)c(-n3nccn3)sc21)OCCO` [Compound I-81, (R)-1-(2-(5-fluoro-2-methoxyphenyl)-2-(2-hydroxy-ethoxy)ethyl)-5-methyl-3-(2-oxo-2-(pyrrolidin-1-yl)ethyl)-6-(2H-1,2,3-triazol-2-yl)thieno[2,3-d]pyrimidine-2,4(1H,3H)-dione], the IC90 in assay [1] (setting [4]) turned out to be 0.4 µg/mL (≈ 0.699 µM); in assay [1] (setting [5]), 0.4 µg/mL (≈ 0.699 µM); in assay [3] (setting [8]), 0.08 µg/mL (≈ 0.14 µM); in assay [3] (setting [9]), 0.08 µg/mL (≈ 0.14 µM). For the same molecule, the values for the MIC in assay [2] (setting [6]) and in assay [2] (setting [7]) were 2.1 to 4 µg/mL (≈ 3.67 to 6.99 µM) and above 4.01 µg/mL, respectively.

With `COc1ccc(F)cc1[C@H](Cn1c(=O)n(CC(=O)NC(C)C)c(=O)c2c(C)c(-n3nccn3)sc21)OCCO` [Compound I-82, (R)-2-(1-(2-(5-fluoro-2-methoxyphenyl)-2-(2-hydroxy-ethoxy)ethyl)-5-methyl-2,4-dioxo-6-(2H-1,2,3-triazol-2-yl)-1,4-dihydro-thieno[2,3-d]pyrimidin-3(2H)-yl)-N-isopropylacetamide], the IC90 in assay [1] (setting [10]) stood at 2 µg/mL (≈ 3.57 µM); in assay [1] (setting [11]), 2 µg/mL (≈ 3.57 µM); in assay [3] it was 0.08 µg/mL (≈ 0.143 µM). Also, the MIC in assay [2] (setting [12]) was in the range of 2.1 to 4 µg/mL (≈ 3.75 to 7.14 µM); in assay [2] (setting [13]), 2.01 to 4 µg/mL (≈ 3.59 to 7.14 µM). For the same molecule, the “Concentration at 90% Inhibition Fm” value in assay [3] (setting [8]) is reported as “AA (compound concentration of 0.08 ppm at 90% inhibition of fungal pathogens)”.

`COc1ccc(F)cc1[C@H](Cn1c(=O)n([C@H](C)C(=O)NC2CCC2)c(=O)c2c(C)c(-n3nccn3)sc21)OCCO` [Compound I-84, (R)—N-cyclobutyl-2-(1-((R)-2-(5-fluoro-2-methoxyphenyl)-2-(2-hydroxyethoxy)ethyl)-5-methyl-2,4-dioxo-6-(2H-1,2,3-triazol-2-yl)-1,4-dihydrothieno[2,3-d]pyrimidin-3(2H)-yl)propanamide]: the IC90 in assay [1] (setting [4]) amounted to 0.4 µg/mL (≈ 0.682 µM); in assay [1] (setting [5]), 0.4 µg/mL (≈ 0.682 µM); in assay [3] (setting [8]), 0.08 µg/mL (≈ 0.136 µM); in assay [3] (setting [9]) it was 0.08 µg/mL (≈ 0.136 µM). The MIC in assay [2] (setting [6]) and in assay [2] (setting [7]) was 0.25 to 1 µg/mL (≈ 0.426 to 1.7 µM) each time.

As for `COc1ccc(F)cc1[C@H](Cn1c(=O)n([C@H](C)C(=O)N(C)C(C)C)c(=O)c2c(C)c(-n3nccn3)sc21)OCCO` [Compound I-85, (R)-2-(1-((R)-2-(5-fluoro-2-methoxyphenyl)-2-(2-hydroxy-ethoxy)ethyl)-5-methyl-2,4-dioxo-6-(2H-1,2,3-triazol-2-yl)-1,4-dihydro-thieno[2,3-d]pyrimidin-3(2H)-yl)-N-isopropyl-N-methylpropanamide], the IC90 in assay [1] (setting [4]) was 0.4 µg/mL (≈ 0.68 µM); in assay [1] (setting [5]), 0.4 µg/mL (≈ 0.68 µM); in assay [3] (setting [8]) it was 0.08 µg/mL (≈ 0.136 µM); in assay [3] (setting [9]) it was 0.08 µg/mL (≈ 0.136 µM). Moreover, the results for the MIC in assay [2] (setting [6]) and in assay [2] (setting [7]) were 0.25 to 1 µg/mL (≈ 0.425 to 1.7 µM) and 1.01 to 2 µg/mL (≈ 1.72 to 3.4 µM), respectively.
